Data from patent publication US9187784B2, “EphA4 is a disease modifier in motor neuron disease” (VIB VZW, priority 2011, dated 2015).
Marks after values point to notes of the source that are not given here.

Experiments:
Type in all cases: in vivo
TDP43A315T embryos = test: mutant TDP-43-induced motor axonopathy in zebrafish embryos
Method: (§1) FIG. 14: Inhibiting EphA4 signaling rescues motor axonopathies induced by overexpression of mutant TDP-43 and knockdown of Smn. Y-axes show motor axon length of zebrafish embryos (30 hpf) expressing TDP^WT (black bar) or TDP^A315T (white bar) (Panels A, B) or with unaltered (black bar) or reduced expression levels of Smn (white bar) (Panels C, D). Smn knockdown was established by injection of 3 ng (Panel C) or 6 ng (Panel D) atg-smn morpholino. Ctr-smn morpholino was injected as control. RTK1 signaling was inhibited by injection of 3 ng atg-RTK1 morpholino (shaded bars) (Panels A, C) or by treatment with C1 (500 μM, shaded bars) (Panels B, D). Injection of ctr-RTK1 morpholino and application of a 1/250 dilution of DMSO were used as control. ANOVA and Bonferroni's multiple comparison tests were used for statistical analysis: TDP^A315T/atg-RTK1 (n=24) vs. TDP^A315T/ctr-RTK1 (n=34, p=7.86×10^−5, Panel A), TDP^A315T/C1 (n=21) vs. TDP^A315T/DMSO (n=21, p=0.045, Panel B), atg-smn/atg-RTK1 (n=35) vs. atg-smn/ctr-RTK1 (n=35, p=4.93×10^−8, Panel C), atg-smn/C1 (n=91) vs. atg-smn/DMSO (n=105, p=1.27×10^−6, Panel D). Error bars are s.e.m.
Mann-Whitney test was used to determine significance between TDPA315T/ctr-RTK1 (4.5 ng) vs. TDPA315T/atg-RTK1 (4.5 ng, * p=0.001) and between TDPA315T/control vs. TDPA315T/C1 (° p=0.029). Control=1/250 DMSO and C1=500 μM.
(§2) A morpholino database of translation-blocking morpholinos (atg-mo) was used to perform a morpholino-based knockdown screening in a zebrafish model for ALS.^13 The standard control morpholino (5′-[…]-′3) (SEQ ID NO:4), provided by Gene tools, was used as control. Three nanograms of morpholino were co-injected with […] of SOD1 mRNA and the effect of gene knockdown on the mutant SOD1-induced axonopathy analyzed. Each morpholino was tested in two separate experiments. Only morphologically normal embryos were included for further analysis. Overexpression of SOD1 or TDP-43, applied to validate the protective morpholino, was established by injection of 1.76 ng SOD1 mRNA or 1.43 ng TDP-43 mRNA, respectively. Antisense morpholinos to knockdown zebrafish RTK1, RTK2, Smn and their five base pair-mismatch control morpholinos were developed by Gene tools: atg-RTK1 (5′-[…]-′3) (SEQ ID NO:5), atg-RTK2 (5′-[…]-[…]-′3) (SEQ ID NO:6), splice-RTK2 (5′-[…]-[…]-′3) (SEQ ID NO:7) and atg-smn (5′-[…]-3′) (SEQ ID NO:8). Compound 1 (2,5-dimethylpyrrolyl benzoic acid, Matrix Scientific) dissolved in DMSO was added to the water of 6-hpf-old zebrafish embryos.

[1] = system: zebrafish embryos with knockdown of Smn; test: rescue of motor axon phenotype induced by knockdown of Smn (SMA model)
Method: as §1, with “ANOVA and Bonferroni's multiple comparison tests were used for statistical analysis: TDP^A315T/atg-RTK1 (n=24) vs. TDP^A315T/ctr-RTK1 (n=34, p=7.86×10^−5, Panel A), TDP^A315T/C1 (n=21) vs. TDP^A315T/DMSO (n=21, p=0.045, Panel B), atg-smn/atg-RTK1 (n=35) vs. atg-smn/ctr-RTK1 (n=35, p=4.93×10^−8, Panel C), atg-smn/C1 (n=91) vs. atg-smn/DMSO (n=105, p=1.27×10^−6, Panel D). Error bars are s.e.m.” left out
A morpholino database of translation-blocking morpholinos (atg-mo) was used to perform a morpholino-based knockdown screening in a zebrafish model for ALS.^13 The standard control morpholino (5′-[…]-′3) (SEQ ID NO:4), provided by Gene tools, was used as control. Three nanograms of morpholino were co-injected with 1.43 ng of SOD1 mRNA and the effect of gene knockdown on the mutant SOD1-induced axonopathy analyzed. […]

zebrafish embryos = test: Toxicity analysis of Compound 1 in zebrafish embryos (total body shape); settings: for death: read at 30 hpf; for malformed / normal: zebrafish, in vivo, 24 h
Method: Different concentrations of C1 were dissolved in the water of 6 hpf-old zebrafish embryos. At 30 hpf, toxicity (%) of C1 was investigated by analyzing total body shape of the embryos.
as §2

## 5′-CTGTGAACACAAGCGCAGCCATTGG-′3 (all phosphorodiamidate morpholino (PMO)) [atg-RTK1]
TDP43A315T embryos; TDPA315T embryos, morpholino 4.5 ng
  % affected embryos: 11* (43) %
TDP43A315T embryos; TDPWT embryos, morpholino 4.5 ng
  % affected embryos: 9 (42) %
TDP43A315T embryos; zebrafish embryos
  effect on outgrowth deficit and aberrant branching induced by mutant TDP-43: rescued the outgrowth deficit and aberrant branching induced by mutant TDP-43
[1]
  effect on motor axon phenotype induced by knockdown of Smn: rescued the motor axon phenotype induced by knockdown of Smn

## Cc1ccc(C)n1-c1ccc(C(=O)O)c(O)c1 [Compound C1]
TDP43A315T embryos; TDPA315T embryos, C1 500 μM
  % affected embryos: 25° (16) %
TDP43A315T embryos; TDPWT embryos, C1 500 μM
  % affected embryos: 33 (36) %
Zebrafish embryos; C1 250 μM in water from 6 hpf
  death: 6.12%
Zebrafish embryos; C1 500 μM in water from 6 hpf
  death: 2.80%
Zebrafish embryos; C1 750 μM in water from 6 hpf
  death: 11.2%
Zebrafish embryos; C1 1000 μM in water from 6 hpf
  death: 20%
Zebrafish embryos; 250 μM
  malformed: 5.10%
  normal: 88.77%
Zebrafish embryos; 500 μM
  malformed: 3.74%
  normal: 93.45%
Zebrafish embryos; 750 μM
  malformed: 12.93%
  normal: 75.86%
Zebrafish embryos; 1000 μM
  malformed: 80%
  normal: 0%
